# US20080319084A1, “Wrinkling Prevention or Remedy with Adam Activity Inhibiting Substance” (Shiseido Company, Ltd., priority 2004, published 2008)
# Tests used:
# [1] = system: finely wrinkled mouse model; assay: Evaluation of anti-wrinkling effects of ADAM activity inhibiting substances in finely wrinkled mouse model (visual score, wrinkle area); format: in vivo, hairless mouse (HR-1); conditions: for mean value of the wrinkle score (visual judgment, 0 no wrinkle to 3 deep wrinkles): after four weeks, 1 mM TAPI-1 or 1% 4-methoxybenzohydroxamic acid in 50% aqueous ethanol, 100 μl after each tape stripping, vehicle 1.17; for mean value of the wrinkle area (%) versus vehicle: replica analysis after four weeks, 1 mM TAPI-1 or 1% 4-methoxybenzohydroxamic acid
# Experimental: The anti-wrinkling effects of TAPI-1 and 4-methoxybenzohydroxamic acid acting as the ADAM activity inhibiting substances were studied by use of the finely wrinkled mouse model.
# Specifically, on the skin on the left side of the dorsal section of a hairless mouse (HR-1, male, six weeks of age, supplied by Hoshino Experimental Animals), the tape stripping was performed in three stages per week and was continued for four weeks such that the transepidermal water loss (TEWL) (as measured by use of a water evaporation quantity measuring apparatus MEECO, supplied by Meeco Co., U.S.A) might fall within the range of 4 mg/cm^2/h to 8 mg/cm^2/h. Immediately after each stage of the tape stripping processing had been performed, 100 μl of TAPI-1 or 4-methoxybenzohydroxamic acid was applied to the skin on the left side of the dorsal section of the mouse. At this time, 4-methoxybenzohydroxamic acid was dissolved in a 50% aqueous ethanol solution such that the concentration of 4-methoxybenzohydroxamic acid might become equal to 1%, and 4-methoxybenzohydroxamic acid was used in the form of the resulting solution. Also, TAPI-1 (supplied by Peptide Research Institute) was evaluated at a concentration of 1 mM. Further, as a negative control, a 50% aqueous ethanol solution (i.e., a vehicle) was applied in the same manner as that described above.
# The state of occurrence of wrinkles after a period of four weeks had elapsed was expressed by scores with visual judgment. The state of occurrence of wrinkles was evaluated with the rating described below. • 0: No wrinkle • 1: shallow wrinkles • 2: clear wrinkles • 3: Deep wrinkles The state of occurrence of wrinkles was expressed by the scores at intervals of 0.5. A larger score represents deeper wrinkles. The mean value and the standard deviation of each group were calculated. The results illustrated in FIG. 5 were obtained.
# Thereafter, the replicas of the dorsal section of the mouse were analyzed by use of a wrinkle analyzing apparatus (supplied by Hamano Engineering), and the wrinkle area (%) was calculated. A low wrinkle area percentage represents that the wrinkle formation has been suppressed. The results illustrated in FIG. 6 were obtained.
# ADAM enzyme = assay: Screening of ADAM activity inhibiting substance: TPA-induced HB-EGF-AP release from HB-EGF-AP/HT-1080 cells; format: cell-based, human; conditions: 60 nM TPA, 60 minutes
# Experimental: Firstly, the screening of a compound having the ADAM enzyme inhibiting activity was performed by use of HB-EGF-AP/HT-1080 (human fibrosarcoma-derived cultured cells HT-1080 having been modified so as to achieve forcible expression of a fusion protein, in which heat-resistant alkaline phosphatase (AP) has been added to an N terminal of human HB-EGF). On the surfaces of the cells of the used cell strain HB-EGF-AP/HT-1080, the HB-EGF entire length molecule is expressed in the form fused with the alkaline phosphatase. In cases where the cells are excited by a phorbol ester, the ADAM enzyme on the cell membrane surfaces is activated to cut the HB-EGF molecule. Since alkaline phosphatase has been bound to HB-EGF having been cut into the released form, in cases where the alkaline phosphatase activity in a culture supernatant is measured, the ADAM enzyme inhibiting activity of the compound is capable of being measured indirectly.
# Specifically, HB-EGF-AP/HT-1080, in which the number of cells had been adjusted at 2.0×10^5 cells/ml, was sowed at a rate of 0.2 ml/well to a 96-well culture micro-plate and was cultured overnight at a temperature of 37° C. […] After the incubation was performed at the room temperature for two hours under a light blocking condition, the absorbance in each well at the wavelength of 405 nm was measured again. […]
# Photo-aged mouse model = assay: Wrinkle formation in Photo-aged mouse model (UV light irradiation); format: in vivo
# Experimental: FIG. 2A is a diagram showing replica images of the mouse skin having been subjected to the tape stripping in the manner described above. FIG. 2B is a diagram showing microscopic photographs of a skin tissue slice of the mouse skin, which skin tissue slice has been stained with HE (hematoxylin-eosin). As illustrated in the replica images (FIG. 2A), skin ditches became deep at the stage 24 hours (24 h) after the beginning of the tape stripping and at the stage 48 hours (48 h) after the beginning of the tape stripping. At the stage one week (1 W) after the beginning of the tape stripping, the directions of the skin ditches coincided with predetermined directions. At the stage four weeks (4 W) after the beginning of the tape stripping, a wrinkle-like appearance occurred. […] At the stage two weeks (2 W) after the beginning of the tape stripping, the epidermal hyperplasia was kept. Table 1 shown below lists morphological alterations, histological alterations, and the like, of the finely wrinkled mouse model having been prepared in the manner described above together with the morphological alterations, histological alterations, and the like, of a Photo-aged mouse model having been prepared with UV light irradiation (for 10 weeks).
# [2] = system: finely wrinkled mouse model; assay: Anti-wrinkling effects of medicine application on finely wrinkled mouse model (tape stripping); format: in vivo, hairless mouse (HR-1); design: key to Wrinkling suppressing effects / Epidermal hyperplasia suppressing effects / Dermal hyperplasia suppressing effects: O: Remedied.; Δ: No alteration was found.; x: Aggravated; conditions: for Dermal hyperplasia suppressing effects / Epidermal hyperplasia suppressing effects / Wrinkling suppressing effects: 100 μl applied to skin after each tape stripping, 2 mM TAPI-1, 1% CGS27023A, 10% glycerol, 1% oleic acid; for Dermal hyperplasia suppressing effects / Epidermal hyperplasia suppressing effects: four weeks, HE-stained slices; for Wrinkling suppressing effects: up to four weeks; for hyperplasia of the epidermis and the dermis (in words) / wrinkle formation (in words): finely wrinkled mouse model, topical application
# Experimental: It is considered that, in cases where the skin barrier is weakened or disrupted by various primary factors, such as a decrease in sebum and face washing, and water evaporation from the skin surface increases, the skin dries, and the fine wrinkles are formed. Therefore, tape stripping was repeatedly performed on the skin of a hairless mouse, the stratum corneum of thus peeled off, and the skin barrier was broken. In this manner, a finely wrinkled mouse model was prepared. Specifically, the tape stripping with cellophane adhesive tapes was performed on the skin on the left side of the dorsal section of a hairless mouse (HR-1, male, six weeks of age, supplied by Hoshino Experimental Animals) with the number of times of the tape stripping being adjusted such that a transepidermal water loss (TEWL) (as measured by use of a water evaporation quantity measuring apparatus MEECO, supplied by Meeco Co., U.S.A) might fall within the range of 4 mg/cm^2/h to 6 mg/cm^2/h. Ordinarily, at the initial stage, the tape stripping was iterated approximately four times. At the final stage, the tape stripping was iterated seven to eight times. The tape stripping was performed in three stages per week and was continued for four weeks. The right side of the dorsal section of the hairless mouse was left to stand as a non-treatment area. Studies were made with respect to the anti-wrinkling effects of the application of various medicines, which were listed in Table 2 below, on the finely wrinkled mouse model. Specifically, the tape stripping was performed on a hairless mouse in the manner described above. After each tape stripping processing, 100 μl of each of the medicines listed in Table 2 was applied to the skin of the hairless mouse. FIG. 4A is a diagram showing replica images of skins having been applied with different medicines in the finely wrinkled mouse model, which replica images have been taken at stages one week, two weeks, and four weeks after the application of each of the medicines. FIG. 4B is a diagram showing microscopic photographs of skin tissue slices of the skins at the stage four weeks after the application of each of the medicines, which skin tissue slices have been stained with HE (hematoxylin-eosin).
Structure (SMILES),"mean value of the wrinkle score (visual judgment, 0 no wrinkle to 3 deep wrinkles) [1]",mean value of the wrinkle area (%) versus vehicle [1],Inhibition rate (%) of HB-EGF release (ADAM enzyme; concentration 10 μg/ml),Inhibition rate (%) of HB-EGF release (ADAM enzyme; concentration 50 μg/ml),wrinkle formation preventing effects (in words) (Photo-aged mouse model),Dermal hyperplasia suppressing effects [2],Epidermal hyperplasia suppressing effects [2],Wrinkling suppressing effects [2],hyperplasia of the epidermis and the dermis (in words) [2],wrinkle formation (in words) [2]
COc1ccc(C(=O)NO)cc1 [4-Methoxybenzohydroxamic acid],0.91,significantly lower,14.8%,55.8%,,,,,,
COc1ccc(S(=O)(=O)N(Cc2cccnc2)[C@@H](C(=O)NO)C(C)C)cc1 [CGS27023A],,,,,exhibited the wrinkle formation preventing effects,Δ,Δ,Δ,not capable of suppressing the hyperplasia of the epidermis and the dermis,not capable of suppressing the wrinkle formation at all
OCC(O)CO [Glycerol],,,,,,Δ,x,Δ,not capable of suppressing the hyperplasia of the epidermis and the dermis,not capable of suppressing the wrinkle formation at all
CCCCCCCC/C=C\CCCCCCCC(=O)O [Oleic acid],,,,,,x,x,x,accelerated the hyperplasia of the epidermis and the dermis,promoted the wrinkle formation
"CC(C)C[C@H](CC(=O)NO)C(=O)N[C@@H](Cc1ccc2ccccc2c1)C(=O)N[C@@H](C)C(=O)NCCN [TAPI-1, N—(R)-(2-(Hydroxyaminocarbonyl)methyl)-4-Methylpentanoyl-L-Nal-L-Alanine 2-Aminoethyl amide]",0.43,significantly lower,,,,∘,∘,∘,markedly suppressed the hyperplasia of the epidermis and the dermis,suppressed the wrinkle formation
